Source: patent publication US20240365781A1, “SYNERGISTICALLY EFFECTIVE HERBICIDE COMPOSITION COMPRISING PELARGONIC ACID AND FLAZASULFURON” (Belchim Crop Protection NV, priority 2017, published 2024)

Legend:
Type in all cases: in vivo
[1] = system: Geranium dissectum; test: post-emergence test, pot trial (Examples 1-5); conditions: 28 d, PT, pelargonic acid 10880 g/ha, 16 L/ha
From the text: (§1) The expected activity of a given combination of two or three herbicides can be calculated as follows according to a calculation method by Colby (cf. COLBY, S. R.: “Calculating synergistic and antagonistic responses of herbicide combinations”, • Weeds 15, pages 20-22, 1967): • If X=% damage by herbicide (A) at an application rate of m g/ha, • Y=% damage by herbicide (B) at an application rate of n g/ha, • E=the expected damage by herbicides (A) and (B) at application rates of m and n […] and, • then for a combination:
(§2) Individual compositions comprising pelargonic acid or flazasulfuron are compared with a herbicide composition according to the invention comprising pelargonic acid and flazasulfuron.
(§3) Herbicidal activity was determined by performing a post-emergence test. […] The corresponding mixture was in the form of a spray liquor. Besides, spray liquors of individual compositions comprising pelargonic acid or flazasulfuron were used.
(§4) Tests were performed on test fields (field trials) or in pots (pot trials).

[2] = system: Setaria pumila; test: post-emergence test, pot trial (Examples 1-5); conditions: young plants, 28 d, PT, pelargonic acid 10880 g/ha, 16 L/ha
From the text: as §1, §2, §3, §4

[3] = system: Lolium multiflorum; test: post-emergence field trial under rows of apple trees, 150-200 L water/ha (Examples 10-12)
Procedure: (§5) Herbicidal activity was determined by performing a post-emergence test. […] The corresponding mixture was in the form of a spray solution. Besides, spray solutions of individual compositions comprising pelargonic acid or flazasulfuron were used.
(§6) The spray solution was applied on plants of unwanted vegetation present on fields where perennial crops were grown.
(§7) After 5 to 88 days after application of the spray solution, the degree of damage to the unwanted vegetation is rated in % of plants of unwanted vegetation that were killed. Tests were performed on test fields (field trials).

[4] = system: Veronica persicae; test: as above
Procedure: as §5, §6, §7

[5] = system: Trifolium repens; test: as above
Procedure: as §5, §6, §7

[6] = system: Setaria viridis; test: as above
Procedure: as §5, §6, §7

[7] = system: Stellaria media; test: as above
Procedure: as §5, §6, §7

[8] = system: Chenopodium album; test: as above
Procedure: as §5, §6, §7

Work on `CCCCCCCCC(=O)O` [Pelargonic acid, nonanoic acid] yielded a herbicidal effect ([1]; bigger plants, flazasulfuron 50 g/ha) of 24%, a herbicidal effect ([1]; young plants, flazasulfuron 25 g/ha) of 32% and a herbicidal effect ([1]; young plants, flazasulfuron 50 g/ha) of 32%. For the same compound, the herbicidal effect ([2]; flazasulfuron 25 g/ha) was 40%, the herbicidal effect ([2]; flazasulfuron 50 g/ha) was 40% and the “herbicidal effect (%)” value ([3]; Lolium multiflorum/5 d, 5440 g of active compound/ha) was 3%. For the same compound, the “herbicidal effect (%)” value ([3]; Lolium multiflorum/5 d, 10880 g of active compound/ha) was 13%, the “herbicidal effect (%)” value ([3]; Lolium multiflorum/18 d, 5440 g of active compound/ha) was 0% and the “herbicidal effect (%)” value ([3]; Lolium multiflorum/18 d, 8160 g of active compound/ha) was 0%. For the same compound, the “herbicidal effect (%)” value ([3]; Lolium multiflorum/18 d, 10880 g of active compound/ha) was 0%, the “herbicidal effect (%)” value ([3]; Lolium multiflorum/32 d, 5440 g of active compound/ha) was 0% and the “herbicidal effect (%)” value ([3]; Lolium multiflorum/32 d, 8160 g of active compound/ha) was 0%. The “herbicidal effect (%)” value ([3]; Lolium multiflorum/32 d, 10880 g of active compound/ha) was 0%, the “herbicidal effect (%)” value ([3]; Lolium multiflorum/61 d, 5440 g of active compound/ha) was 0% and the “herbicidal effect (%)” value ([3]; Lolium multiflorum/61 d, 8160 g of active compound/ha) was 0%. The “herbicidal effect (%)” value ([3]; Lolium multiflorum/61 d, 10880 g of active compound/ha) was 0%, the “herbicidal effect (%)” value ([3]; Lolium multiflorum/88 d, 5440 g of active compound/ha) was 0% and the “herbicidal effect (%)” value ([3]; Lolium multiflorum/88 d, 8160 g of active compound/ha) was 0%. The “herbicidal effect (%)” value ([3]; Lolium multiflorum/88 d, 10880 g of active compound/ha) was 0%, the “herbicidal effect (%)” value ([4]; Veronica persicae/7 d, 5440 g of active compound/ha) was 56% and the “herbicidal effect (%)” value ([4]; Veronica persicae/7 d, 8160 g of active compound/ha) was 70%. For the same compound, the “herbicidal effect (%)” value ([4]; Veronica persicae/7 d, 10880 g of active compound/ha) was 73%, the “herbicidal effect (%)” value ([4]; Veronica persicae/16 d, 5440 g of active compound/ha) was 30% and the “herbicidal effect (%)” value ([4]; Veronica persicae/16 d, 8160 g of active compound/ha) was 48%. The “herbicidal effect (%)” value ([4]; Veronica persicae/16 d, 10880 g of active compound/ha) was 45%, the “herbicidal effect (%)” value ([4]; Veronica persicae/26 d, 5440 g of active compound/ha) was 0% and the “herbicidal effect (%)” value ([4]; Veronica persicae/26 d, 8160 g of active compound/ha) was 0%. For the same compound, the “herbicidal effect (%)” value ([4]; Veronica persicae/26 d, 10880 g of active compound/ha) was 0%, the “herbicidal effect (%)” value ([4]; Veronica persicae/59 d, 5440 g of active compound/ha) was 0% and the “herbicidal effect (%)” value ([4]; Veronica persicae/59 d, 8160 g of active compound/ha) was 0%. The “herbicidal effect (%)” value ([4]; Veronica persicae/59 d, 10880 g of active compound/ha) was 0%, the “herbicidal effect (%)” value ([5]; Trifolium repens/7 d, 5440 g of active compound/ha) was 59% and the “herbicidal effect (%)” value ([5]; Trifolium repens/7 d, 8160 g of active compound/ha) was 73%. The “herbicidal effect (%)” value ([5]; Trifolium repens/7 d, 10880 g of active compound/ha) was 75%, the “herbicidal effect (%)” value ([5]; Trifolium repens/16 d, 5440 g of active compound/ha) was 9% and the “herbicidal effect (%)” value ([5]; Trifolium repens/16 d, 8160 g of active compound/ha) was 13%. The “herbicidal effect (%)” value ([5]; Trifolium repens/16 d, 10880 g of active compound/ha) was 23%, the “herbicidal effect (%)” value ([5]; Trifolium repens/26 d, 5440 g of active compound/ha) was 0% and the “herbicidal effect (%)” value ([5]; Trifolium repens/26 d, 8160 g of active compound/ha) was 0%. The “herbicidal effect (%)” value ([5]; Trifolium repens/26 d, 10880 g of active compound/ha) was 0%, the “herbicidal effect (%)” value ([5]; Trifolium repens/59 d, 5440 g of active compound/ha) was 0% and the “herbicidal effect (%)” value ([5]; Trifolium repens/59 d, 8160 g of active compound/ha) was 0%. For the same compound, the “herbicidal effect (%)” value ([5]; Trifolium repens/59 d, 10880 g of active compound/ha) was 0%, the “herbicidal effect (%)” value ([6]; Setaria viridis/6 d, 5440 g of active compound/ha) was 13% and the “herbicidal effect (%)” value ([6]; Setaria viridis/6 d, 8160 g of active compound/ha) was 35%. For the same compound, the “herbicidal effect (%)” value ([6]; Setaria viridis/6 d, 10880 g of active compound/ha) was 40%, the “herbicidal effect (%)” value ([6]; Setaria viridis/16 d, 5440 g of active compound/ha) was 43% and the “herbicidal effect (%)” value ([6]; Setaria viridis/16 d, 8160 g of active compound/ha) was 45%. For the same compound, the “herbicidal effect (%)” value ([6]; Setaria viridis/16 d, 10880 g of active compound/ha) was 48%, the “herbicidal effect (%)” value ([6]; Setaria viridis/30 d, 5440 g of active compound/ha) was 53% and the “herbicidal effect (%)” value ([6]; Setaria viridis/30 d, 8160 g of active compound/ha) was 53%. For the same compound, the “herbicidal effect (%)” value ([6]; Setaria viridis/30 d, 10880 g of active compound/ha) was 53%, the “herbicidal effect (%)” value ([6]; Setaria viridis/57 d, 5440 g of active compound/ha) was 0% and the “herbicidal effect (%)” value ([6]; Setaria viridis/57 d, 8160 g of active compound/ha) was 0%. For the same compound, the “herbicidal effect (%)” value ([6]; Setaria viridis/57 d, 10880 g of active compound/ha) was 0%, the “herbicidal effect (%)” value ([6]; Setaria viridis/78 d, 5440 g of active compound/ha) was 0% and the “herbicidal effect (%)” value ([6]; Setaria viridis/78 d, 8160 g of active compound/ha) was 0%. For the same compound, the “herbicidal effect (%)” value ([6]; Setaria viridis/78 d, 10880 g of active compound/ha) was 0%, the “herbicidal effect (%)” value ([7]; Stellaria media/5 d, 5440 g of active compound/ha) was 5% and the “herbicidal effect (%)” value ([7]; Stellaria media/5 d, 10880 g of active compound/ha) was 89%. For the same compound, the “herbicidal effect (%)” value ([7]; Stellaria media/18 d, 5440 g of active compound/ha) was 0%, the “herbicidal effect (%)” value ([7]; Stellaria media/18 d, 8160 g of active compound/ha) was 0% and the “herbicidal effect (%)” value ([7]; Stellaria media/18 d, 10880 g of active compound/ha) was 0%. For the same compound, the “herbicidal effect (%)” value ([8]; Chenopodium album/6 d, 5440 g of active compound/ha) was 20%, the “herbicidal effect (%)” value ([8]; Chenopodium album/6 d, 8160 g of active compound/ha) was 50% and the “herbicidal effect (%)” value ([8]; Chenopodium album/6 d, 10880 g of active compound/ha) was 60%. For the same compound, the “herbicidal effect (%)” value ([8]; Chenopodium album/16 d, 5440 g of active compound/ha) was 48%, the “herbicidal effect (%)” value ([8]; Chenopodium album/16 d, 8160 g of active compound/ha) was 63% and the “herbicidal effect (%)” value ([8]; Chenopodium album/16 d, 10880 g of active compound/ha) was 63%.
